Assay results from ChEMBL document CHEMBL4800731, “Data for DCP probe JNJ-65355394” (2021).
Active and inactive are the calls of the source. No cut-off for these calls is given here.

Key:
[1] = molecular target: T1, Protein O-GlcNAcase (Homo sapiens, UniProt O60502); experiment: Cell-based OGA assay
T1 sequence (O60502 whole entry): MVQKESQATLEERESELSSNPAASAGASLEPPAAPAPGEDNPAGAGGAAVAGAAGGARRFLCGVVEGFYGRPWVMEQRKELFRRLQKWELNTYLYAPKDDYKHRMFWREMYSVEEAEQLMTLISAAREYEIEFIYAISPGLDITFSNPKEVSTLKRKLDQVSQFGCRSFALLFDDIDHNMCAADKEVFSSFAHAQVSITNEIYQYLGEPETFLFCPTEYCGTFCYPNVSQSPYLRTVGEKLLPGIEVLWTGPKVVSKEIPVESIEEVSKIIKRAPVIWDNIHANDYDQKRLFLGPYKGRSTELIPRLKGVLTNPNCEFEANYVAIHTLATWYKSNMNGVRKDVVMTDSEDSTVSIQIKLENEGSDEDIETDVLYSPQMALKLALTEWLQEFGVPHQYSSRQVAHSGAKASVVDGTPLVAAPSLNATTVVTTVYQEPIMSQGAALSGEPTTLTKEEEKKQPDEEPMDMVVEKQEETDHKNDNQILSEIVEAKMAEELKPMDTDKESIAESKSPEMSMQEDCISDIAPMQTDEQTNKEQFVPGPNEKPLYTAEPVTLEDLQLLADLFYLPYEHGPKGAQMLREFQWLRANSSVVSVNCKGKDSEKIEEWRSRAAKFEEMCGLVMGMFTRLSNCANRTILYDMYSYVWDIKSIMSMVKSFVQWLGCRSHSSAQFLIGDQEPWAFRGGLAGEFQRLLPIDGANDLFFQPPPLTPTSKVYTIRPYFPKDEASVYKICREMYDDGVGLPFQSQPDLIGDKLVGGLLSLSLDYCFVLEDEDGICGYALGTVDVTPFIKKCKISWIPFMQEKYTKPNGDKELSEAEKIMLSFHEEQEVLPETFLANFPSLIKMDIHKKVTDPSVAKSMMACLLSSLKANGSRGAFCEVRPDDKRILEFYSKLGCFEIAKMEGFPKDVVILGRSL

[2] = molecular target: Adenosine receptor A2a (Homo sapiens) (UniProt P29274); experiment: hA2A Cerep panel
[3] = species on record: Rattus norvegicus; experiment: rBZD Cerep panel
[4] = molecular target: Cholecystokinin receptor type A (Homo sapiens) (UniProt P32238); experiment: hCCKA Cerep panel
[5] = molecular target: Vasopressin V1a receptor (Homo sapiens) (UniProt P37288); experiment: hV1a Cerep panel
Vasopressin V1a receptor (Homo sapiens), sequence (P37288 whole entry, looked up): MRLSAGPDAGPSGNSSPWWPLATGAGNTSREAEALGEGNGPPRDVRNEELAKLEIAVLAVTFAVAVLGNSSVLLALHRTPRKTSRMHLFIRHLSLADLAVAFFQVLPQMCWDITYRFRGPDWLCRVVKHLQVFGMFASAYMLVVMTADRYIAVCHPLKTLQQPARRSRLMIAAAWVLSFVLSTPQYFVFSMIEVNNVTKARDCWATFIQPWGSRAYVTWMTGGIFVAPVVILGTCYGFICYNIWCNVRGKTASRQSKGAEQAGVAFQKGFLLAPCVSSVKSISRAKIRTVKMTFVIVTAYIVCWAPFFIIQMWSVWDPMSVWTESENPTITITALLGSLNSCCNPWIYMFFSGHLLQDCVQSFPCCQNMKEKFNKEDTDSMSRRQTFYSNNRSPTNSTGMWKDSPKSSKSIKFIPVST

Adenosine receptor A2a (Homo sapiens), sequence (P29274 whole entry): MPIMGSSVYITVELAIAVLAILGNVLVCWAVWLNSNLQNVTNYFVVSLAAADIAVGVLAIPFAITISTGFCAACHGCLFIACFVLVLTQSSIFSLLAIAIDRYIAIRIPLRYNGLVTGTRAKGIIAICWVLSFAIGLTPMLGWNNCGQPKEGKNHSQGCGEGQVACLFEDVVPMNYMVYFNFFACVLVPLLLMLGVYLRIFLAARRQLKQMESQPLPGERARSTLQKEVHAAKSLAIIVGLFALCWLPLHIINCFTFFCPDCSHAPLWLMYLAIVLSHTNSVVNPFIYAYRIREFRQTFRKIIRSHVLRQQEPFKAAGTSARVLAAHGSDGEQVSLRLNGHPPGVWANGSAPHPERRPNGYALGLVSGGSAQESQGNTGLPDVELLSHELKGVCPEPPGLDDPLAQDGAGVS
Cholecystokinin receptor type A (Homo sapiens), sequence (P32238 whole entry): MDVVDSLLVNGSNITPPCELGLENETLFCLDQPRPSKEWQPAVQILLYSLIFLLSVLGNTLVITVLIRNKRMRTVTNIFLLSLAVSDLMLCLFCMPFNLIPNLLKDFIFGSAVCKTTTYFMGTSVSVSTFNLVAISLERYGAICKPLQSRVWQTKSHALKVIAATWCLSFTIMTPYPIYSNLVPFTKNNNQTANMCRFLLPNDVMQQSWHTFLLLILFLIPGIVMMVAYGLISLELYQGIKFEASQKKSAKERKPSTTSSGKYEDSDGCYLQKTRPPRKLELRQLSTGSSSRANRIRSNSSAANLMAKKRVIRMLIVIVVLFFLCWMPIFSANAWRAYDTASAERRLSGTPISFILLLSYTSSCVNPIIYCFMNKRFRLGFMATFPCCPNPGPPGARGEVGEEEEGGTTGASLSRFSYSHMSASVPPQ

- IC50 [1]: 3.9 nM (active)
- effect [2]: 4.9%
- effect [3]: -16.6%
- effect [4]: -22%
- effect [5]: 7.65%
Structure (SMILES): CC(=O)Nc1ncc(CN2CCC[C@H](Cc3cc(C)nc(C)c3)C2)s1 [JNJ-65355394]
